Experimental data as given in paper PMC12592173, “Targeted degradation of EGFR 19Del by PROTACs suppresses tumor growth in non-small-cell lung cancer” (Frontiers in Pharmacology, 2025).
pIC50: −log10 of the molar value. Values joined by “and” are separate entries in the source; they are usually repeats but may differ in a detail not shown here. Identical values can stand only once. “Also recorded” adds a separate entry of the source. Like-named read-outs stand apart in the source and are kept apart here.

Tests used:
EGFR^Del19 [1] = conditions: HCC827 cells; ref Zhao et al., 2022; cited from earlier work
HCC827 cells [2] = conditions: ref Zhao et al., 2022; cited from earlier work
EGFR^L858R = target: T1, EGFR^L858R (Homo sapiens, UniProt P00533, L858R); assay: Western blot of EGFR degradation in Ba/F3 cells stably expressing EGFR^L858R; assay type: cell-based; conditions: 24 h
T1 construct: expressed in transfected cells; host or cells: Ba/F3 (lentiviral pLVX-EGFR^L858R, puromycin selected)
Method: HCC827 and H1975 cell lines were purchased from ATCC (United States) and cultured according to the manuals. Cells were grown in monolayers in appropriate media supplemented with 10% fetal bovine serum and 1% antibiotic/antimycotic solution. Ba/F3 cells stably expressing EGFR^L858R were obtained by infection with lentivirus produced by co-transfection of pLVX-EGFR^L858R, psPAX2, and pMD2.G into 293T cells, followed by selection with puromycin.
(§1) Cells at 70%–90% confluence were lysed in RIPA buffer with complete protease inhibitor cocktail (Roche Applied Science, Penzberg, Germany). Lysates were quantified, separated on SDS-PAGE gels, and transferred onto PVDF membranes, followed by the blockade with 5% milk in TBS+ 0.1% Tween-20 buffer for 1 h at room temperature. The following primary antibodies were used: anti-EGFR (1:50000, ABclonal Technology, Wuhan, China), anti-pEGFR (Tyr1068, […], Cell Signaling Technology, MA, United States), anti-AKT (1:10000, ABclonal Technology, Wuhan, China), anti-pAKT (1:10000, ABclonal Technology, Wuhan, China), and anti-β-actin (1:10000, ABclonal Technology, Wuhan, China). Protein bands were detected using Tanon High-signal ECL Western Blotting Substrate (Tanon Science and Technology Co., Ltd., Shanghai, China). The band density of the protein of interest was quantified using ImageJ.

EGFR^WT protein = EGFR^WT protein (Homo sapiens, UniProt P00533); assay: Immunoblots of EGFR in H1299, H460 and HeLa cells; assay type: cell-based; conditions: H1299, H460 and HeLa cell lines, up to 1 μM, 24 h
Method: as §1

EGFR^L858R/T790M protein = target: T2, EGFR^L858R/T790M protein (Homo sapiens, UniProt P00533, L858R/T790M); assay: Immunoblots of EGFR in H1975 cells; assay type: cell-based; conditions: H1975 cell line, up to 1 μM, 24 h
T2 construct: nor the EGFR^L858R/T790M protein in the H1975 cell line, up to 1 μM; host or cells: H1975
Method: as §1

pEGFR and pAKT = assay: Western blot of downstream signaling in HCC827 cells; assay type: cell-based, human
Method: as §1

HCC827 cells [3] = assay: Cell viability (CCK-8) in HCC827 cells; assay type: cell-based, human; conditions: for pIC50: Homo sapiens, CCK-8
Method: (§2) The viability of cells was determined using Cell Counting Kit-8 (CCK-8; Dojindo), and IC50 was calculated using GraphPad Prism (version 6.0). For colony formation assays, cells (1 × 10^3 cells/well) seeded in 24-well plates were treated with different concentrations of compounds and replaced with fresh media with compounds every 4 days. After 7 days, the cells were washed with PBS, fixed with methanol, and stained with 0.1% crystal violet solution.

H1299 cells = assay: Cell viability (CCK-8) in H1299 cells; assay type: cell-based; conditions: up to 1 μM, 96 h
Method: as §2, with “Cells (5 × 10^3 for 48 h or 1 × 10^3 for 96 h) were seeded in 96-well plates, allowed to attach overnight, and then incubated with various concentrations of compounds for 48 h or 96 h. The” for “The”

HeLa cells = assay: Cell viability (CCK-8) in HeLa cells; assay type: cell-based; conditions: up to 1 μM, 96 h
Method: as §2, with “Cells (5 × 10^3 for 48 h or 1 × 10^3 for 96 h) were seeded in 96-well plates, allowed to attach overnight, and then incubated with various concentrations of compounds for 48 h or 96 h. The” for “The”

H1975 cells = assay: Cell viability (CCK-8) in H1975 cells; assay type: cell-based; conditions: up to 1 μM, 96 h
Method: as §2, with “Cells (5 × 10^3 for 48 h or 1 × 10^3 for 96 h) were seeded in 96-well plates, allowed to attach overnight, and then incubated with various concentrations of compounds for 48 h or 96 h. The” for “The”

HCC827 cells [4] = assay: Colony formation assay in HCC827 cells; assay type: cell-based, human; conditions: HCC827, 7 days
Method: as §2, with “Cells (5 × 10^3 for 48 h or 1 × 10^3 for 96 h) were seeded in 96-well plates, allowed to attach overnight, and then incubated with various concentrations of compounds for 48 h or 96 h. The” for “The”

HCC827 cells [5] = assay: Apoptosis assay (Annexin V-FITC/PI, flow cytometry); assay type: cell-based, human; conditions: HCC827, 10 nM, 48 h
Excerpt: The percentage of apoptotic cells in total cells was designated as the apoptotic index.

[6] = test system: HCC827 human tumor xenograft; assay: HCC827 xenograft tumor growth in BALB/c nude mice; assay type: in vivo, mouse
Method: (§3) Female BALB/c nude mice (5–6 weeks old) were purchased from Changzhou Cavens Laboratory Animal Co., Ltd. (China) and housed under pathogen-free conditions. HCC827 cells (5 × 10^6) suspended in 150 μL PBS were inoculated subcutaneously on the left flank of the mouse. When tumor volume reached an average of 70–80 mm^3, mice were randomly assigned to two groups (three mice in each group). […] The tumor volume was calculated as follows: tumor volume (mm^3) = (length × width^2)/2. All animal experiments were approved by the Ethics Committee for laboratory animals, The Nanjing Han & Zaenker Cancer Institute (File number: OGKQSPF/SQ-112).

[7] = Mouse weights in HCC827 xenograft study; assay type: in vivo; conditions: 30 mg/kg intraperitoneal, repeated and one-time dosing
Method: Female BALB/c nude mice (5–6 weeks old) were purchased from Changzhou Cavens Laboratory Animal Co., Ltd. (China) and housed under pathogen-free conditions. HCC827 cells (5 × 10^6) suspended in 150 μL PBS were inoculated subcutaneously on the left flank of the mouse. When tumor volume reached an average of 70–80 mm^3, mice were randomly assigned to two groups (three mice in each group). Compound 14 (30 mg/kg, dissolved in 40% PEG 400 and 5% Tween-80) or vehicle (40% PEG 400 and 5% Tween-80) was administered to mice via intraperitoneal injection every 2 days for 21 days. The tumor volume was calculated as follows: tumor volume (mm^3) = (length × width^2)/2. All animal experiments were approved by the Ethics Committee for laboratory animals, The Nanjing Han & Zaenker Cancer Institute (File number: OGKQSPF/SQ-112).

EGFR^Del19 [8] = target: T3, EGFR^Del19 (Homo sapiens, UniProt P00533+Q96SW2, DEL746-750); assay: Western blot of EGFR degradation in HCC827 cells; assay type: cell-based; parameters: host or cells: HCC827; conditions: for EGFR protein remaining under cycloheximide: HCC827, cycloheximide 100 μg/mL + 10 nM compound
Method: HCC827 and H1975 cell lines were purchased from ATCC (United States) and cultured according to the manuals. Cells were grown in monolayers in appropriate media supplemented with 10% fetal bovine serum and 1% antibiotic/antimycotic solution.
as §1

EGFR^Del19 [9] = target: T3, EGFR^Del19; assay: Western blot of dissected HCC827 xenograft tumors; assay type: in vivo, mouse; parameters: from tissue; host or cells: HCC827 xenograft tumours in female BALB/c nude mice; conditions: 30 mg/kg intraperitoneal
Method: as §1
as §3, with “All animal experiments were approved by the Ethics Committee for laboratory animals, The Nanjing Han & Zaenker Cancer Institute (File number: OGKQSPF/SQ-112).” left out

## C=CC(=O)N1CCC[C@H](n2c(Nc3ccccc3)nc3cnc(Nc4ccc(N5CCN(CCCCCCCC(=O)N[C@H](C(=O)N6C[C@H](O)C[C@H]6C(=O)N[C@@H](C)c6ccc(-c7scnc7C)cc6)C(C)(C)C)CC5)cc4)nc32)C1 [CP17]
EGFR^Del19 [1]
  DC50: 0.49 nM
HCC827 cells [2]
  pIC50: 8.80

## COc1cc2c(Nc3ccc(F)c(Cl)c3)ncnc2cc1OCCCN1CCN(CCN2CCN(c3ccc4c(c3)C(=O)N(C3CCC(=O)NC3=O)C4=O)CC2)CC1 (stereo not drawn) [Compound 14]
EGFR^L858R; Ba/F3 cells stably expressing EGFR^L858R
  DC50: 20.6 nM
EGFR^L858R; Ba/F3 cells
  Degradation of EGFR^L858R compared with MS154: remarkable improvements
EGFR^WT protein
  Degradation of EGFR^WT protein: no effect; also recorded: neither compound degraded; also recorded: No significant degradation
EGFR^L858R/T790M protein
  Degradation of EGFR^L858R/T790M protein: neither compound degraded
pEGFR and pAKT
  Levels of pEGFR and pAKT: markedly reduced; also recorded: more marked decreases
HCC827 cells [3]; HCC827, 10 nM for 8 h, washed, fresh media 24-96 h
  Proliferation after compound removal: almost completely stopped proliferating; also recorded: completely ceased proliferation
HCC827 cells [3]; HCC827, 48 h, HCC827, 48 h incubation
  pIC50: ~8.08
HCC827 cells [3]; HCC827, 96 h, HCC827, 96 h incubation
  pIC50: 8.31
HCC827 cells [3]; different concentrations
  Proliferation of HCC827 cells versus control vehicle: markedly attenuated the proliferation
H1299 cells
  Effect on viability: not affecting the viability; also recorded: did not affect the viability
HeLa cells
  Effect on viability: not affecting the viability; also recorded: did not affect the viability
H1975 cells
  Effect on viability: not affecting the viability; also recorded: did not affect the viability
HCC827 cells [4]
  Colony formation: fewer and smaller colonies
HCC827 cells [5]
  Increase in the number of apoptotic cells: at least a two-fold increase
[6]; 30 mg/kg intraperitoneal every 2 days for 21 days
  Mean tumor volume: 56.58 ± 10.91 mm^3
[6]; one-time intraperitoneal injection 30 mg/kg, 18 days after treatment, versus vehicle
  Mean tumor volume inhibition: 79%
[7]
  Signs of wasting (mouse weights): None of the mice showed signs of wasting
EGFR^Del19 [8]; 10 nM, HCC827, 24 h, average of two independent experiments, NA = not active
  EGFR degradation (%): 66.3% ± 3.5% and 66.3 ± 3.5%
EGFR^Del19 [8]; 4 h
  EGFR protein remaining under cycloheximide: 34.5%
EGFR^Del19 [8]; 8 h
  EGFR protein remaining under cycloheximide: 12.5%
EGFR^Del19 [8]; HCC827 cells, 10 nM
  Earliest time at which EGFR^Del19 degradation observed: 2 h
EGFR^Del19 [8]; HCC827 cells, 10 nM, after 24 h of incubation, read-out: Maximum degradation (Dmax) in time course
  Dmax at 0.01 µM: 85%
EGFR^Del19 [8]; HCC827 cells, 10 nM, continuous incubation
  Duration of sustained EGFR^Del19 degradation: 96 h
EGFR^Del19 [8]; HCC827 cells, 8 h incubation with 10 nM, then washout
  Duration of EGFR^Del19 reduction after compound removal: over 72 h
EGFR^Del19 [8]; HCC827 cells, 24 h
  Degradation of EGFR^Del19 compared with MS154: remarkable improvements
EGFR^Del19 [8]; HCC827 cells, 24 h, dose-response
  Dmax: 91.2%
EGFR^Del19 [8]; HCC827 cells, 24 h treatment
  DC50: 0.26 nM and 0.261 nM
EGFR^Del19 [9]
  EGFR^Del19 protein in tumors in vivo: effectively degraded
